Values quoted from earlier work as cited in patent US5854247A, “Piperazine, piperidine and tetrahydropyridine derivatives useful as 5-HT1 recepter agonists” (Merck Sharp & Dohme Ltd., priority 1994, dated 1998).

Conditions: humans, therapeutic doses

For `CNS(=O)(=O)Cc1ccc2[nH]cc(CCN(C)C)c2c1` [sumatriptan], the adverse cardiovascular events is listed as “certain adverse cardiovascular events”.
